Here are results for five molecules from US20050025705A1, “Thrombosis animal models and their use in drug discovery and development” (priority 2003, published 2005).

“And” between values parts separate entries of the source, which are not always exact repeats. Identical values can stand only once.

In series [1] the test system is FeCl3-induced arterial thrombosis in C57BL/6 mice. As to the kind of experiment: FeCl3-induced carotid artery thrombosis in mice, Doppler blood flow (Example 2). Type of series: in vivo. Conditions: for efficacy in blocking thrombus formation: relatively high FeCl3 concentrations, unless an extremely high drug concentration was used. The method, then: Mice were anesthetized with gas inhalation comprised of 30% oxygen (0.3 liter/min; Airgas East, Inc., Salem, N.H.) and 70% nitrous oxide (0.7 liter/min; Airgas East, Inc., Salem, N.H.). […] Louis, Mo.) to the adventitial surface of the carotid artery immediately proximal to the flow probe for 3 min and then removed. The carotid blood flow was monitored at 1, 5, 10, 20, 30 min or some times up to 60 min. Heparin was purchased from American Pharmaceutical Partners, Inc. (Los Angeles, Calif.); mice were infused with 10, 50, 200 and 1000 IU/kg, i.v. immediately prior to 2.5 or 5% FeCl3 treatment on the carotid artery. […] Aspirin (acetylsalicylic acid) and MRS2179 were purchased from Sigma. […] Data in text and figures are mean±standard errors for the indicated number (N) of animals.

Series [2] concerns 5% FeCl3-induced arterial thrombosis in C57BL/6 mice. The protocol:
Adult mice (18-25 g, both male and female) were used for thrombosis study. Following anesthesia by pentobarbital (50 mg/kg, i.p.), an incision of the skin was made directly on top of the right common carotid artery region. The fascia was then blunt dissected and a segment of the […] common carotid artery was exposed. A Transonic flow probe (0.5 VB) was placed on the artery with gel to obtain the baseline flow readings (as time 0) via a Transonic […] Doppler flowmeter. Two pieces of filter paper (1×11⁄2 mm) pre-soaked with 5% FeCl3 solution were placed beneath and above the carotid artery for 3 min to induce thrombosis. The filter papers were removed and rinsed with saline. The blood flow was recorded every 5, 10, 20 and 30 min of FeCl3 treatment. […] Clopidogrel was administrated for two days. […] Data are illustrated as mean±standard errors using indicated number (N) of animals. Statistical comparisons were made by analysis of variance (ANOVA; Fisher's protected least squares difference) and values were considered to be significant at p<0.05.

The subject of series [3] is tail bleeding time in C57BL/6 mice. As to the kind of experiment: Mouse tail bleeding time.
Protocol: Mice were anesthetized as described above and placed on a 37° C. heating pad. About 2-4 mm from the tip of mouse tail (in about 1 mm diameter) was cut with a disposable surgical blade. After transection, the tail was immediately placed into a 50-ml falcon tube filled with 37° C. saline and the bleeding time was recorded up to 30 min. Bleeding time over 30 min was considered as bleeding off scale.
Both thrombosis and bleeding studies were conducted within 2-4 hr after the second day of oral dosing.
The conditions of series [4]: cited from earlier work.

`CNc1ncnc2c1ncn2[C@H]1C[C@H](OP(=O)(O)O)[C@@H](COP(=O)(O)O)O1` [MRS2179] had an effective dose in series [1] (2.5% FeCl3-induced thrombosis, i.v.) of 150 mg/kg. In series [1] (2.5% FeCl3, compared with P2Y12 antagonists), the “potency in blocking FeCl3-induced thrombosis” value is “less potent”. The “efficacy in blocking thrombus formation” value in series [1] is on record as “failed to show efficacy”.
Regarding `CC(=O)Oc1ccccc1C(=O)O` [aspirin, acetylsalicylic acid], the “effect in blocking thrombosis” value in series [1] (2.5% FeCl3-induced thrombosis, aspirin 10 and 30 mg/kg i.p.) is recorded as “Very little effect”. In addition, the “efficacy in blocking thrombus formation” value in series [1] was “failed to show efficacy”.
As to `CSCCNc1nc(SCCC(F)(F)F)nc2c1ncn2[C@@H]1O[C@H](COP(=O)(O)OP(=O)(O)C(Cl)(Cl)P(=O)(O)O)[C@@H](O)[C@H]1O` [cangrelor], in series [1] (2.5% and 5% FeCl3), the “efficacy in 2.5% versus 5% FeCl3-induced thrombosis” value is recorded as “differential efficacy”. The “efficacy in blocking thrombus formation” value in series [1] is given as “failed to show efficacy”.
Consider `COC(=O)[C@H](c1ccccc1Cl)N1CCc2sccc2C1` [clopidogrel], for which, in series [1] (2.5% FeCl3-induced thrombosis, 1 mg/kg p.o.), the vascular patency entry was “maintained in some”. In addition, in series [1] (2.5% FeCl3-induced thrombosis, 3 mg/kg p.o.), the “vascular patency (animals in which maintained)” value is “all”. For the same molecule, the “dose required to show efficacy” value in series [1] (5% FeCl3-induced thrombosis, p.o.) was 100 mg/kg. Further, the “efficacy in blocking thrombus formation” value in series [1] was “failed to show efficacy”. Also, in series [2] (10 mg/kg), the protection from thrombosis result is given as “failed to protect”. Moreover, the “animals that retained vascular patency” value in series [2] (100 mg/kg p.o.) is 6 out of 9. Besides, the “AUC of the relative Doppler blood flow, over controls” value in series [2] (100 mg/kg p.o., p<0.01) was found to be 3.7 fold. Also, the antithrombotic effect result in series [2] (clinically relevant dose 1 mg/kg p.o.) is given as “No antithrombotic effect”. In series [2] (p.o.), the “dose needed for antithrombotic effect” value is listed as > 30 mg/kg. The “prolongation in bleeding time” value in series [3] (1 mg/kg p.o.) is given as “no prolongation”. The entries for the “animals bleeding off scale (over 30 min)” value in series [3] (10 mg/kg p.o.) and in series [3] (30 mg/kg (data not shown)) were 75% and 100%, respectively. The “increase in bleeding time” value in series [3] (10 mg/kg p.o., p<0.01, n=8) is 11 fold and 10.9 fold.
Take heparin: the vascular patency result in series [1] (2.5% FeCl3-induced thrombosis, 200 IU/kg i.v.) is recorded as “maintained”. In addition, the “dose required to inhibit thrombosis” value in series [1] (5% FeCl3-induced thrombosis, i.v.) was 1000 IU/kg. In addition, the “efficacy in blocking thrombus formation” value in series [1] is on record as “failed to show efficacy”. For the same molecule, the clotting activity result in series [4] (at concentrations greater than 4 ug/ml) is on record as “not detectable”. For the same molecule, the “activated partial thromboplastin time (aPTT) assay times” value in series [4] (at therapeutic range 1 to less than 3 ug/ml plasma) is 35 to 100 s.
